The target in test [1] is T1, Proto-oncogene tyrosine-protein kinase Src [251-533] (Gallus gallus, UniProt P00523).
T1 construct: 251-533
The test is described as follows: In vitro Kinase Assay. Particulars: pH 8. As for the experimental part: (§1) In vitro kinase assays for c-Src variants were performed in 50 mM Tris (pH 8.0), 10 mM MgCl2 and 1 mg/mL BSA. When obtaining kinetic parameters (kcat, Km) kinase and peptide substrate (IYGEFKKK) (SEQ ID NO:51) concentrations were 2 nM and 500 μM, respectively, while ATP concentrations ranged from 2000-0.655 μM. Addition of nonradioactive ATP supplemented with 32P ATP (3,000 Ci/mmol, NEN) was used to initiate kinase reactions. Time points were selected such that product formation never exceeded 10%. Reactions were quenched by spotting 3 μL quantities onto phosphocellulose sheets (P81, Whatman). Afterwards, the sheets were washed 3×5 minutes in 0.5% phosphoric acid and dried. Radioactivity was measured by phosphorimaging and recorded on a Typhoon fluorescence imager (Molecular Dynamics).

The target of test [2] is T2, Proto-oncogene tyrosine-protein kinase Src [251-533,T338C] (Gallus gallus, UniProt P00523, T338C).
T2 construct: 251-533
The test is described as follows: In vitro Kinase Assay. Particulars: pH 8. As for the experimental part:
as §1

Consider `CC(=O)c1cccc(Cc2nn(C(C)C)c3ncnc(N)c23)c1` [US9353116, 14], for which the values for the half-inhibitory concentration (IC50) in test [1] and in test [2] were above 5 µM and 4.52 µM, respectively.

As for `C=CS(=O)(=O)Nc1ccc(Nc2ncnc3cc(OC)c(OC)cc23)cc1` [US9353116, 20], the concentration for half-maximal inhibition (IC50) in test [1] is 2.17 µM; in test [2], 0.56 µM.
